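Interpolation was linear, between the two tested concentrations surrounding the appropriate level; five concentrations were tested over 48 hours in 96-well plates. At the GI50, growth is halved.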 Calls of active or inactive are those of the source. Cut-off read from the data, not from the text of the source: active = GI50 up to about 1.1 µM and inactive = higher.
Assays:
Assay in all cases: NCI tumour cell line growth inhibition, 48 h
MDA-N = test system: MDA-N
U-251 = test system: U-251
A549 = test system: A549
IGROV-1 = test system: IGROV-1
LOX IMVI = test system: LOX IMVI
OVCAR-3 = test system: OVCAR-3
UACC-62 = test system: UACC-62
TK-10 = test system: TK-10
RXF 393 = test system: RXF 393
COLO 205 = test system: COLO 205
NCI/ADR-RES = test system: NCI/ADR-RES
SN12C = test system: SN12C
HT-29 = test system: HT-29
PC-3 = test system: PC-3
SNB-75 = test system: SNB-75
EKVX = test system: EKVX
KM12 = test system: KM12
SK-MEL-5 = test system: SK-MEL-5
CCRF-CEM = test system: CCRF-CEM
A498 = test system: A498

Compound | GI50 (MDA-N) | GI50 (U-251) | GI50 (A549) | GI50 (IGROV-1) | GI50 (LOX IMVI) | GI50 (OVCAR-3) | GI50 (UACC-62) | GI50 (TK-10) | GI50 (RXF 393) | GI50 (COLO 205) | GI50 (NCI/ADR-RES) | GI50 (SN12C) | GI50 (HT-29) | GI50 (PC-3) | GI50 (SNB-75) | GI50 (EKVX) | GI50 (KM12) | GI50 (SK-MEL-5) | GI50 (CCRF-CEM) | GI50 (A498)
O=NN1C(c2ccccc2)CC(=NO)CC1c1ccccc1 (stereo not drawn) | > 100 µM (inactive) | > 100 µM (inactive) | > 100 µM (inactive) | > 100 µM (inactive) | > 100 µM (inactive) | > 100 µM (inactive) | > 100 µM (inactive) | > 100 µM (inactive) | > 100 µM (inactive) | > 100 µM (inactive) | > 100 µM (inactive) | > 100 µM (inactive) | 20.5 µM (inactive) | 70.3 µM (inactive) | 88.5 µM (inactive) | > 100 µM (inactive) | > 100 µM (inactive) | > 100 µM (inactive) |  | 
Cc1cc(C)nc(NS(=O)(=O)c2ccc(NC(=O)c3ccc4nc5ccccc5c(Nc5ccc(S(=O)(=O)N=C(N)N)cc5)c4c3)cc2)n1 | > 100 µM (inactive) | > 100 µM (inactive) | > 100 µM (inactive) | > 100 µM (inactive) | > 100 µM (inactive) | > 100 µM (inactive) | > 100 µM (inactive) | > 100 µM (inactive) | > 100 µM (inactive) | > 100 µM (inactive) | > 100 µM (inactive) | > 100 µM (inactive) | > 100 µM (inactive) | > 100 µM (inactive) | > 100 µM (inactive) | > 100 µM (inactive) | > 100 µM (inactive) | > 100 µM (inactive) | 68.5 µM (inactive) | 
O=C(NC(=S)Nc1ccc2c(c1)Sc1ccccc1O2)c1ccccc1 | 3.94 µM (inactive) | 20.7 µM (inactive) | 45.5 µM (inactive) | 29.6 µM (inactive) | 39.1 µM (inactive) | 35.7 µM (inactive) | 22.5 µM (inactive) | 20.8 µM (inactive) | 20.4 µM (inactive) | 38.8 µM (inactive) | 39.9 µM (inactive) | 50.1 µM (inactive) | 35.4 µM (inactive) | 11.2 µM (inactive) | 15.7 µM (inactive) | 36.1 µM (inactive) | 29.5 µM (inactive) | 20.8 µM (inactive) | 23 µM (inactive) | 
O1C2C1C1OC1C1OC1C1OC21 (stereo not drawn) | > 100 µM (inactive) | > 100 µM (inactive) | > 100 µM (inactive) |  | > 100 µM (inactive) |  | > 100 µM (inactive) | > 100 µM (inactive) |  | > 100 µM (inactive) | > 100 µM (inactive) | > 100 µM (inactive) | > 100 µM (inactive) | > 100 µM (inactive) | 46.6 µM (inactive) | > 100 µM (inactive) | > 100 µM (inactive) | > 100 µM (inactive) | < 0.01 µM (active) | > 100 µM (inactive)
